Target: RsbU phosphatase domain (Mycobacterium tuberculosis, UniProt P9WLZ7)
Test: biochemical

Sequence of RsbU phosphatase domain (P9WLZ7 190-397): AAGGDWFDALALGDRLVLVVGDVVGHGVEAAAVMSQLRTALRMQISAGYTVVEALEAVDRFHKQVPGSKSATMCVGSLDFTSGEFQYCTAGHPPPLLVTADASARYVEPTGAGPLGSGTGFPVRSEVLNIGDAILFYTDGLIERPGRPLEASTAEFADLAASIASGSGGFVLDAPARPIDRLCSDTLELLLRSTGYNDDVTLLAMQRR

`O=P(O)(O)O` [inorganic phosphate] showed a Ki of 320 nM.

From paper PMC3662962 (Biochemical and biophysical research communications, 2010)
